Test results published in the supplement of paper PMC8882468.
± gives the standard deviation of the averaged measurements.

Assays:
Assay in all cases: CTG-3D luminescence at 96 h relative to day-0 seeding control (ratio to day 0); higher = more growth / less cytotoxicity; PDxO 3D drug screen (set 2), 96 h, CTG-3D normalised to day-0 seeding control.
[1] = system: HCI-016 (organoid from a triple-negative breast cancer xenograft)
[2] = system: HCI-017.E2 (organoid from an ER-positive breast cancer xenograft)
[3] = system: HCI-019 (organoid from a triple-negative breast cancer xenograft)
[4] = system: HCI-023 (organoid from a triple-negative breast cancer xenograft)
[5] = system: HCI-024 (organoid from a breast cancer xenograft)

CS(=O)(=O)CCNCc1ccc(-c2ccc3ncnc(Nc4ccc(OCc5cccc(F)c5)c(Cl)c4)c3c2)o1 [lapatinib]
CTG-3D luminescence at 96 h
Settings | 12.5 pM | 0.00025 µM | 0.005 µM | 0.1 µM | 1 µM | 10 µM | 100 µM | 625 fM
[1], days in culture: 305 | 2.19 | 2.44 | 2.88 | 3.72 | 1.92 | 0.286 | -0.00685 | 4
[1], days in culture: 327 | 1.07 | 0.931 | 1.47 | 1.74 | 1.12 | 0.284 | 0.000753 | 2.05
[1], days in culture: 341 | 2.29 | 1.62 | 2.18 | 1.86 | 1.6 | 0.474 | -0.00181 | 2.42
[1], days in culture: 397 | 1.92 | 2.19 | 2.02 | 2.38 | 1.32 | 0.254 | -0.000202 | 2.47
[2], days in culture: 85 | 2.34 | 1.93 | 1.68 | 2.32 | 1.61 | 0.581 | 0.0189 | 2.45
[3], days in culture: 173 | 1.7 | 2.33 | 1.14 | 2.61 | 1.9 | 0.415 | 0.078 | 1.93
[3], days in culture: 194 | 1.47 | 2.84 | 1.45 | 2.84 | 1.7 | 0.531 | 0.0607 | 2.78
[3], days in culture: 215 | 1.96 | 2.03 | 1.85 | 1.67 | 1.66 | 0.323 | 0.00321 | 2.07
[4], days in culture: 223 | 1.82 | 2.13 | 1.85 | 2.09 | 1.46 | 0.716 | 0.00541 | 1.72
[4], days in culture: 238 | 1.38 | 1.57 | 1.41 | 1.6 | 1.91 | 0.911 | 0.00517 | 1.57
[4], days in culture: 252 | 2.21 | 2.11 | 1.77 | 1.94 | 1.86 | 1.14 | 0.00206 | 1.9
[5], days in culture: 202 | 1.02 | 1.45 | 1.36 | 0.838 | 0.917 | 0.832 | 0.0105 | 1.54
[5], days in culture: 231 | 0.876 | 1.18 | 1.07 | 1.57 | 1.44 | 0.512 | 0.00851 | 1.39
[5], days in culture: 254 | 1.47 | 0.96 | 1.64 | 2.25 | 1.02 | 0.584 | 0.0095 | 1.76

[2]
Settings | CTG-3D luminescence at 96 h
12.5 pM | 2.11 ± 0.029
0.00025 µM | 2.75 ± 0.76
0.005 µM | 2.4 ± 0.061
0.1 µM | 2.37 ± 0.3
1 µM | 1.95 ± 0.13
10 µM | 0.905 ± 0.14
100 µM | 0.00683 ± 0.0022
625 fM | 2.65 ± 0.43

O=C(c1cc(Cc2n[nH]c(=O)c3ccccc23)ccc1F)N1CCN(C(=O)C2CC2)CC1 [olaparib]
CTG-3D luminescence at 96 h
Settings | 12.5 pM | 0.00025 µM | 0.005 µM | 0.1 µM | 1 µM | 10 µM | 100 µM | 625 fM
[1], days in culture: 305 | 2.92 | 2.24 | 2.09 | 3.71 | 1.96 | 1.22 | 0.878 | 3.99
[1], days in culture: 327 | 1.25 | 0.765 | 1.45 | 1.31 | 1.34 | 1.59 | 1.23 | 1.74
[1], days in culture: 341 | 1.92 | 1.78 | 2.18 | 2.46 | 1.62 | 1.79 | 0.982 | 2.44
[1], days in culture: 397 | 1.5 | 2.56 | 1.17 | 1.75 | 2.07 | 1.74 | 0.249 | 2.79
[2], days in culture: 85 | 2.36 | 1.92 | 1.89 | 2.06 | 1.56 | 0.709 | 0.204 | 2.56
[3], days in culture: 173 | 2.78 | 1.9 | 2.2 | 2.31 | 0.982 | 0.711 | 1.32 | 1.96
[3], days in culture: 194 | 0.984 | 1.95 | 2.68 | 1.65 | 1.48 | 0.946 | 0.789 | 2.41
[3], days in culture: 215 | 2 | 2.06 | 1.04 | 1.59 | 1.06 | 0.36 | 0.254 | 1.33
[4], days in culture: 223 | 1.7 | 2.3 | 1.79 | 1.65 | 1.36 | 1.31 | 0.879 | 1.75
[4], days in culture: 238 | 1.45 | 1.31 | 1.45 | 1.53 | 1.9 | 1.41 | 0.856 | 1.72
[4], days in culture: 252 | 2.12 | 1.81 | 1.55 | 2 | 1.78 | 1.86 | 1.59 | 2.3
[5], days in culture: 202 | 0.819 | 0.984 | 0.907 | 1.28 | 0.775 | 1.01 | 0.38 | 1.05
[5], days in culture: 231 | 0.787 | 0.983 | 0.972 | 1.27 | 1.78 | 1.27 | 0.836 | 1.4
[5], days in culture: 254 | 1.65 | 1.41 | 1.28 | 1.24 | 1.88 | 1.07 | 0.671 | 1.54

[2]
Settings | CTG-3D luminescence at 96 h
12.5 pM | 2.27 ± 0.03
0.00025 µM | 2.61 ± 0.52
0.005 µM | 2.34 ± 0.22
0.1 µM | 2.76 ± 0.57
1 µM | 2.06 ± 0.25
10 µM | 1.12 ± 0.051
100 µM | 0.259 ± 0.025
625 fM | 2.59 ± 0.23

CC(=O)c1c(C)c2cnc(Nc3ccc(N4CCNCC4)cn3)nc2n(C2CCCC2)c1=O [palbociclib]
CTG-3D luminescence at 96 h
Settings | 12.5 pM | 0.00025 µM | 0.005 µM | 0.1 µM | 1 µM | 10 µM | 100 µM | 625 fM
[1], days in culture: 305 | 2.74 | 2.8 | 2.81 | 3.01 | 2.9 | 1.83 | 2.12 | 3.73
[1], days in culture: 327 | 0.926 | 1.04 | 1.84 | 1.67 | 1.15 | 1.59 | 0.478 | 1.3
[1], days in culture: 341 | 2.28 | 1.75 | 1.74 | 2.25 | 1.67 | 1.9 | 0.71 | 2.48
[1], days in culture: 397 | 2 | 2.56 | 1.48 | 2.7 | 2.38 | 1.99 | 0.831 | 2.9
[2], days in culture: 85 | 2.34 | 1.47 | 2.15 | 2.41 | 1.66 | 1.8 | 1.58 | 1.96
[3], days in culture: 173 | 2.68 | 2.28 | 1.24 | 2.55 | 2.78 | 1.39 | 1.9 | 2.01
[3], days in culture: 194 | 3.12 | 1.02 | 3.29 | 2.76 | 2.08 | 1.97 | 1.02 | 1.43
[3], days in culture: 215 | 1.93 | 1.31 | 2.06 | 1.48 | 1.83 | 1.35 | 1.38 | 1.73
[4], days in culture: 223 | 2.23 | 2.46 | 1.71 | 1.94 | 1.21 | 1.61 | 1.04 | 1.86
[4], days in culture: 238 | 1.53 | 1.27 | 1.67 | 1.48 | 1.87 | 1.53 | 0.908 | 1.59
[4], days in culture: 252 | 2.28 | 1.93 | 1.66 | 1.79 | 1.79 | 1.92 | 1.35 | 1.91
[5], days in culture: 202 | 0.831 | 0.703 | 1.17 | 1.26 | 1.7 | 1.1 | 0.337 | 1.22
[5], days in culture: 231 | 0.919 | 0.896 | 1.34 | 0.956 | 1.09 | 0.74 | 0.498 | 1.21
[5], days in culture: 254 | 1.24 | 1.36 | 0.864 | 0.919 | 1.17 | 1.25 | 0.688 | 2.68

[2]
Settings | CTG-3D luminescence at 96 h
12.5 pM | 2 ± 0.16
0.00025 µM | 2.45 ± 0.34
0.005 µM | 2.1 ± 0.028
0.1 µM | 2.37 ± 0.17
1 µM | 1.98 ± 0.21
10 µM | 2.346 ± 0.0064
100 µM | 1.25 ± 0.19
625 fM | 2.23 ± 0.092

CO[C@H]1C[C@@H]2CC[C@@H](C)[C@@](O)(O2)C(=O)C(=O)N2CCCC[C@H]2C(=O)O[C@H]([C@H](C)C[C@@H]2CC[C@@H](O)[C@H](OC)C2)CC(=O)[C@H](C)/C=C(\C)[C@@H](O)[C@@H](OC)C(=O)[C@H](C)C[C@H](C)/C=C/C=C/C=C/1C [rapamycin]
CTG-3D luminescence at 96 h
Settings | 12.5 pM | 0.00025 µM | 0.005 µM | 0.1 µM | 1 µM | 10 µM | 100 µM | 625 fM
[1], days in culture: 305 | 1.79 | 1.77 | 1.74 | 4.51 | 1.66 | 1.4 | 0.0174 | 3.16
[1], days in culture: 327 | 0.432 | 0.896 | 2.06 | 1.99 | 0.951 | 1.2 | 0.023 | 0.782
[1], days in culture: 341 | 1.45 | 1.24 | 1.81 | 1.73 | 1.34 | 1.81 | 0.00758 | 1.9
[1], days in culture: 397 | 1.84 | 1.69 | 1.26 | 1.35 | 1.52 | 1.39 | 0.0166 | 1.94
[2], days in culture: 85 | 2.2 | 1.67 | 1.47 | 1.51 | 1.34 | 1.31 | 0.0123 | 2.57
[3], days in culture: 173 | 1.07 | 0.905 | 0.844 | 1.93 | 1.36 | 1.43 | 0.0117 | 1.08
[3], days in culture: 194 | 1.66 | 1.04 | 1.1 | 0.588 | 1.28 | 1.54 | 0.0107 | 2.69
[3], days in culture: 215 | 1.12 | 0.5 | 0.486 | 1.15 | 0.713 | 0.457 | 0.00468 | 1.43
[4], days in culture: 223 | 1.62 | 1.63 | 1.09 | 1.99 | 0.95 | 1.49 | 0.0136 | 2.02
[4], days in culture: 238 | 1.36 | 1.16 | 0.919 | 1.42 | 1.46 | 1.5 | 0.0105 | 1.26
[4], days in culture: 252 | 1.76 | 1.4 | 1.31 | 1.72 | 1.32 | 1.8 | 0.00661 | 1.58
[5], days in culture: 202 | 1.07 | 1.14 | 0.789 | 1.11 | 0.752 | 1.36 | 0.00983 | 1.53
[5], days in culture: 231 | 1.39 | 1.11 | 1.27 | 0.84 | 0.989 | 0.927 | 0.00464 | 1.06
[5], days in culture: 254 | 1.73 | 0.635 | 1.21 | 0.879 | 0.958 | 1.05 | 0.00976 | 3.42

[2]
Settings | CTG-3D luminescence at 96 h
12.5 pM | 1.41 ± 0.26
0.00025 µM | 1.88 ± 0.34
0.005 µM | 1.61 ± 0.12
0.1 µM | 1.58 ± 0.15
1 µM | 1.56 ± 0.074
10 µM | 1.63 ± 0.34
100 µM | 0.0217 ± 0.0042
625 fM | 1.583 ± 0.013
